Results from US6277860A, “Furopyridine antibacterials” (Pfizer Inc, priority 1999, dated 2001).
≈ marks a conversion by molar mass, not a printed value. Like-named read-outs stand apart in the source and are kept apart here. One block for each compound: values may come before it.

Legend:
E. coli 51A1074 = experiment: MIC by serial agar dilution method, E. coli 51A1074; format: cell-based, Escherichia coli
Description: (§1) MIC: minimum inhibitory concentration; for more detail see below.
(§2) For determination of minimum inhibitory concentration (MIC), serial agar dilution method is used with same incubation condition as described above. The growth of bacteria is monitored by measuring the optical density at 655 nm.
(§3) The compound prepared in Example 1(2R*,3R*-2,3-dihydro-2-[(E)-2-buten-2-yl]-4-hydroxy-3-methyl-5-phenylfuro[2,3-b]pyridine-3-carbaldehyde ) was tested according to the assay method described in pages 12 to 14.

E. coli 51A1073 = experiment: MIC by serial agar dilution method, E. coli 51A1073; format: cell-based, Escherichia coli
Description: as §1, §2, §3

[1] = tested on: Staphylococcus aureus 01A1095; experiment: MIC by serial agar dilution method, Staphylococcus aureus 01A1095; format: cell-based
Description: as §1, §2, §3

S. pneumoniae 02J1095 = experiment: MIC by serial agar dilution method, S. pneumoniae 02J1095; format: cell-based, Streptococcus pneumoniae
Description: as §1, §2, §3

S. pyogenes 02C1068 = experiment: MIC by serial agar dilution method, S. pyogenes 02C1068; format: cell-based; conditions: for MIC: Streptococcus pyogenes
Description: (§4) Other strains which have similar characteristics of resistance to drugs may be also used. Such strains are usually available for those skilled in the art.
as §1
The strain of S. pyogenes 02C1068 was inoculated and grown in tubes, containing 10 ml of TSB with 0.5 ml of lysed horse blood (Nippon Bio-Supply Center), statically for 24 hours at 37° C. After the incubation, the cells were centrifuged and resuspended in a mixture of 50% aqueous glycerol (4 ml) and defibrinated sheep blood (6 ml, Nippon Bio-Supply Center). The resulting cell-suspension was dispensed to cryotubes, 1 ml per vial, and stored at -80° C. until its use.
(§5) Each stock culture, 200 μl for S. aureus and E. coli and 1 ml for E. faecalis, is added to 100 ml of Mueller Hinton medium (DIFCO), mixed and poured into an assay plate. The stock culture (1 ml) of S. pyogenes is inoculated into a tube containing 20 ml TSB and 1.0 ml defibrinated horse blood (Nippon Bio-Supply Center), and incubated statically at 37° C. for 24 hours. The incubated culture (5 ml) and 5 ml of sheep blood (Nippon Bio-Supply Center) were added to Mueller Hinton medium (100 ml), mixed and poured into an assay plate.
as §2, §3

[2] = tested on: Streptococcus agalactiae 02B1023; experiment: MIC by serial agar dilution method, Streptococcus agalactiae 02B1023; format: cell-based
Description: as §1, §2, §3

S. pyogenes 02C1079 = experiment: MIC by serial agar dilution method, S. pyogenes 02C1079; format: cell-based
Description: as §1, §2, §3

[3] = tested on: Haemophilus influenzae 54A0085; experiment: MIC by serial agar dilution method, Haemophilus influenzae 54A0085; format: cell-based
Description: as §1, §2, §3

E. coli 51A1075 = experiment: MIC by serial agar dilution method, E. coli 51A1075; format: cell-based, Escherichia coli
Description: as §1, §2, §3

S. aureus 01A1105 = experiment: MIC by serial agar dilution method, S. aureus 01A1105; format: cell-based, Staphylococcus aureus
Description: as §4, §1
(§6) Each strain of S. aureus 01A1105, E faecalis 03A1069 and E. coli 51A0266 is inoculated and grown in tube containing 10 ml of Trypticase Soy Broth (TSB, DIFCO), overnight at 37° C. shaking at 200 rpm. The cell-concentration of the culture is adjusted by dilution with TSB and 50% aqueous glycerol to an optical density of 1.4 at 600 nm (light path=1 cm) and a final glycerol concentration of 20%. The diluted culture is dispensed to cryotubes, 1 ml per vial, and stored at -80° C. until its use.
as §5, §2, §3

[4] = tested on: Enterococcus faecalis 03A1069; experiment: MIC by serial agar dilution method, Enterococcus faecalis 03A1069; format: cell-based
Description: as §4, §1, §6, §5, §2, §3

various bacteria = experiment: Antibacterial assay, overall result in words; format: cell-based
Description: Sample solution is loaded and dried on a paper disk (i.d. 6 mm, thin, Advantec) which is placed on the assay plate and incubated overnight at 37° C. The activity is determined by measuring the size of growth-inhibition zone around the disk. As controls, vancomycin 1 μg and tetracycline 1 μg disks are used.
as §2, §3

E. coli 51A1051 = experiment: MIC by serial agar dilution method, E. coli 51A1051; format: cell-based, Escherichia coli
Description: as §1, §2, §3

H. influenzae 54A0131 = experiment: MIC by serial agar dilution method, H. influenzae 54A0131; format: cell-based, Haemophilus influenzae
Description: as §1, §2, §3

S. aureus 01A1120 = experiment: MIC by serial agar dilution method, S. aureus 01A1120; format: cell-based, Staphylococcus aureus
Description: as §1, §2, §3

S. hemolyticus 01E1006 = experiment: MIC by serial agar dilution method, S. hemolyticus 01E1006; format: cell-based
Description: as §1, §2, §3

[5] = tested on: Moraxella catarrhalis 87A1055; experiment: MIC by serial agar dilution method, Moraxella catarrhalis 87A1055; format: cell-based
Description: as §1, §2, §3

S. pneumoniae 02J1046 = experiment: MIC by serial agar dilution method, S. pneumoniae 02J1046; format: cell-based, Streptococcus pneumoniae
Description: as §1, §2, §3

Escherichia coli 51A0266 = experiment: MIC by serial agar dilution method, Escherichia coli 51A0266; format: cell-based
Description: as §4, §1, §6
as §5, with “The incubated culture (5 ml) and 5 ml of sheep blood (Nippon Bio-Supply Center) were added to Mueller Hinton medium (100 ml), mixed and poured into an assay plate.” left out
For determination of minimum inhibitory concentration (MIC), serial agar dilution method is used with same incubation condition as described above. The growth of bacteria is monitored by measuring the optical density at 655 nm. […]

[6] = Storeptococcus pyogenes 02C1068, antibiotic resistance of strain, read-out: MIC (minimum inhibitory concentration)
[7] = Staphylococcus aureus 01A1105, antibiotic resistance of strain, read-out: MIC (minimum inhibitory concentration)
[8] = Enterococcus faecalis, 03A1069, read-out: MIC (minimum inhibitory concentration)
[9] = Staphylococcus aureus, 01A1105, read-out: MIC (minimum inhibitory concentration)

Compound: C/C=C(\C)[C@H]1Oc2ncc(-c3ccccc3)c(O)c2[C@@]1(C)C=O (relative stereo) [Example 1, 2R*,3R*-2,3-dihydro-2-[(E)-2-buten-2-yl]-4-hydroxy-3-methyl-5-phenylfuro[2,3-b]pyridine-3-carbaldehyde]
minimum inhibitory concentration (MIC) (E. coli 51A1074): > 100
minimum inhibitory concentration (MIC) (E. coli 51A1073): > 100
minimum inhibitory concentration (MIC) [1]: 100
minimum inhibitory concentration (MIC) (S. pneumoniae 02J1095): 6.25
minimum inhibitory concentration (MIC) (S. pyogenes 02C1068; S. pyogenes 02C1068, multidrug resistant): 6.25
minimum inhibitory concentration (MIC) [2]: 25
minimum inhibitory concentration (MIC) (S. pyogenes 02C1079): 12.5
minimum inhibitory concentration (MIC) [3]: 50
minimum inhibitory concentration (MIC) (E. coli 51A1075): 100
minimum inhibitory concentration (MIC) (S. aureus 01A1105; S. aureus 01A1105, multidrug resistant): 25
minimum inhibitory concentration (MIC) ([4]; Enterococcus faecalis 03A1069, multidrug resistant): 100
antibacterial activity against various bacteria (various bacteria): remarkable antibacterial activity against various bacteria
minimum inhibitory concentration (MIC) (E. coli 51A1051): > 100
minimum inhibitory concentration (MIC) (H. influenzae 54A0131): 100
minimum inhibitory concentration (MIC) (S. aureus 01A1120): 25
minimum inhibitory concentration (MIC) (S. hemolyticus 01E1006): 100
minimum inhibitory concentration (MIC) [5]: 50
minimum inhibitory concentration (MIC) (S. pneumoniae 02J1046): 25
minimum inhibitory concentration (MIC) (Escherichia coli 51A0266; Escherichia coli 51A0266): > 100

MIC (S. pyogenes 02C1068; [6]): > 16 µg/mL
MIC ([4]; Enterococcus faecalis 03A1069, antibiotic resistance of strain, read-out: MIC (minimum inhibitory concentration)): > 256 µg/mL
Compound: CC[C@H]1OC(=O)[C@H](C)[C@@H](O[C@H]2C[C@@](C)(OC)[C@@H](O)[C@H](C)O2)[C@H](C)[C@@H](O[C@@H]2O[C@H](C)C[C@H](N(C)C)[C@H]2O)[C@](C)(O)C[C@@H](C)CN(C)[C@H](C)[C@@H](O)[C@]1(C)O [azithromycin]

MIC (S. aureus 01A1105; [7]): > 256 µg/mL
Compound: CO/N=C(\C(=O)N[C@@H]1C(=O)N2C(C(=O)O)=C(COC(C)=O)CS[C@H]12)c1csc(N)n1 [cefataxime]

Compound: CC(=O)OCC1=C(C(=O)O)N2C(=O)[C@@H](NC(=O)Cc3cccs3)[C@H]2SC1 [cephalothin]
MIC [4, 8]: 128 µg/mL (≈ 323 µM)

Compound: O=C(N[C@H](CO)[C@H](O)c1ccc([N+](=O)[O-])cc1)C(Cl)Cl [chloramphenicol]
MIC [4, 8]: 16 µg/mL (≈ 49.5 µM)

Compound: O=C(O)c1cn(C2CC2)c2cc(N3CCNCC3)c(F)cc2c1=O [ciprofloxacin]
MIC (S. aureus 01A1105; [9]): > 32 µg/mL

MIC (S. pyogenes 02C1068; [6]): > 64 µg/mL
MIC (S. aureus 01A1105; [7]): > 256 µg/mL
Compound: CCC[C@@H]1C[C@@H](C(=O)N[C@@H]([C@H]2O[C@H](SC)[C@H](O)[C@@H](O)[C@H]2O)[C@H](C)Cl)N(C)C1 [clindamycin]

Compound: CC[C@H]1OC(=O)[C@H](C)[C@@H](O[C@H]2C[C@@](C)(OC)[C@@H](O)[C@H](C)O2)[C@H](C)[C@@H](O[C@@H]2O[C@H](C)C[C@H](N(C)C)[C@H]2O)[C@](C)(O)C[C@@H](C)C(=O)[C@H](C)[C@@H](O)[C@]1(C)O [erythromycin]
MIC (S. pyogenes 02C1068; 02C1068, read-out: MIC (minimum inhibitory concentration)): > 64 µg/mL
MIC (S. aureus 01A1105; [9]): > 256 µg/mL

MIC (S. aureus 01A1105; [7]): > 256 µg/mL
Compound: COc1cccc(OC)c1C(=O)N[C@@H]1C(=O)N2[C@@H]1SC(C)(C)[C@@H]2C(=O)O [methicillin]

Compound: CC1(C)S[C@@H]2[C@H](NC(=O)Cc3ccccc3)C(=O)N2[C@H]1C(=O)O [penicillin G]
MIC (S. aureus 01A1105; [9]): 64 µg/mL (≈ 191 µM)
MIC [4, 8]: 6 µg/mL (≈ 17.9 µM)

Compound: CN(C)C1C(=O)C(C(N)=O)=C(O)C2(O)C(=O)C3=C(O)c4c(O)cccc4C(C)(O)C3CC12 (stereo not drawn) [tetracycline]
MIC (S. aureus 01A1105; [9]): 128 µg/mL (≈ 288 µM)

Compound: CN[C@H](CC(C)C)C(=O)N[C@H]1C(=O)N[C@@H](CC(N)=O)C(=O)N[C@H]2C(=O)N[C@H]3C(=O)N[C@H](C(=O)N[C@H](C(=O)O)c4cc(O)cc(O)c4-c4cc3ccc4O)[C@H](O)c3ccc(c(Cl)c3)Oc3cc2cc(c3O[C@@H]2O[C@H](CO)[C@@H](O)[C@H](O)[C@H]2O[C@H]2C[C@](C)(N)[C@H](O)[C@H](C)O2)Oc2ccc(cc2Cl)[C@H]1O [vancomycin, reference compound]
MIC [4, 8]: 24 µg/mL (≈ 16.6 µM)
MIC (Escherichia coli 51A0266; Escherichia coli, 51A0266, read-out: MIC (minimum inhibitory concentration)): > 128 µg/mL

Compound: gentamicin
MIC (minimum inhibitory concentration) (S. aureus 01A1105; Staphylococcus aureus 01A1105, antibiotic resistance of strain): 64 µg/mL
